Assays:
[1] = Lipophilicity, logD of compound at pH 7 by shake flask based HPLC method; assay type: physicochemical; settings: buffer
[2] = Mean residence time in Wistar Han rat at 0.1 mg/kg, iv administered as cassette dosing measured upto 24 hrs by LC-MS/MS analysis; assay type: ADME, organism-based; settings: in vivo
[3] = Ratio of unbound brain to plasma drug concentration in Wistar Han rat; assay type: ADME, cell-free; settings: read-out: K(p,uu,brain)
[4] = Ratio of unbound CSF to plasma drug concentration in rhesus monkey; assay type: ADME, Macaca mulatta
[5] = Oral bioavailability in Beagle dog at 0.5 mg/kg measured upto 24 hrs by LC-MS/MS analysis; assay type: ADME, organism-based, Canis lupus familiaris; settings: in vivo
[6] = Mean residence time in Beagle dog at 0.25 mg/kg, iv measured upto 24 hrs by LC-MS/MS analysis; assay type: ADME, organism-based, Canis lupus familiaris; settings: in vivo
[7] = Ratio of unbound brain to plasma drug concentration in rhesus monkey; assay type: ADME, cell-free, Macaca mulatta; settings: read-out: K(p,uu,brain)
[8] = Oral bioavailability in Wistar Han rat at 1 mg/kg measured upto 24 hrs by LC-MS/MS analysis; assay type: ADME, organism-based; settings: in vivo
[9] = Mean residence time in Wistar Han rat at 2 mg/kg, iv measured upto 24 hrs by LC-MS/MS analysis; assay type: ADME, organism-based; settings: in vivo
[10] = AUC in rat at 100 mg/kg, po BID; assay type: ADME, organism-based; settings: in vivo
[11] = Oral bioavailability in Wistar Han rat at 10 mg/kg measured upto 24 hrs by LC-MS/MS analysis; assay type: ADME, organism-based; settings: in vivo

| logD [1] | MRT [2] [h] | Compound | further results |
| --- | --- | --- | --- |
| – | 1 | CO[C@@H]1CCN(c2cc(-n3ncc4ccc([C@]5(C)CC56CC6)cc43)ncn2)C1 | – |
| – | 0.8 | Cc1nc(-n2ncc3ccc([C@]4(C#N)CC45CC5)cc32)cs1 | Kp uu [3]: 0.5 |
| – | 1 | Cc1cc(-n2ncc3ccc([C@]4(C#N)CC45CC5)cc32)nc(C)n1 | Kp uu [3]: 0.19 |
| – | 3.2 | COC12CC(n3cc(-n4ncc5cc(Cl)c(N6CCN(C7(C)COC7)CC6)cc54)cn3)(C1)C2 | – |
| – | 2.2 | COCC12CC(n3cc(-n4ncc5cc(Cl)c(N6CCN(C7(C)COC7)CC6)cc54)cn3)(C1)C2 | – |
| – | 0.8 | Cn1ccc(-n2ncc3ccc([C@]4(C#N)CC45CC5)cc32)n1 | Kp uu [3]: 1 |
| – | 3.4 | CC1(N2CCN(c3cc4c(cnn4-c4cnn(C56CC(C5)C6)c4)cc3Cl)CC2)COC1 | – |
| – | 2.9 | CC1(N2CCN(c3cc4c(cnn4-c4cnn(C56CC(C#N)(C5)C6)c4)cc3Cl)CC2)COC1 | – |
| – | 1.5 | Cn1ccc(-n2ncc3cc(Cl)c(C4CCN(C5COC5)CC4)cc32)n1 | – |
| – | 2.7 | CC1(N2CCN(c3cc4c(cnn4-c4cnn(C56CC(C(F)F)(C5)C6)c4)cc3Cl)CC2)COC1 | – |

Continued, compound first:

| Compound | logD [1] | MRT [2] [h] | further results |
| --- | --- | --- | --- |
| CC1(N2CCC(c3cc4c(cnn4-c4cnn(C5CC5)c4)cc3Cl)CC2)COC1 | 3.4 | 3.6 | – |
| CC1(N2CCC(c3cc4c(cnn4-c4cnn(-c5ncc(F)cn5)c4)cc3Cl)CC2)COC1 | 3.3 | 3.3 | – |
| Cn1cc(-n2ncc3cc(Cl)c(C4CCN(C5COC5)CC4)cc32)cn1 | – | 2.1 | Kp uu [3]: 0.4; Kp uu [4]: 1; bioavailability [5]: 59%; MRT [6]: 2.1 h; Kp uu [7]: 0.9; bioavailability [8]: 77% |
| CC1(N2CCN(c3cc4c(cnn4-c4cnn(C5CC5)c4)cc3Cl)CC2)COC1 | – | 2.8 | – |
| CCn1cc(-n2ncc3cc(Cl)c(C4CCN(C5(C)COC5)CC4)cc32)cn1 | 3.2 | 4 | – |
| CO[C@H]1C[C@H](n2cc(-n3ncc4cc(Cl)c(C5CCN(C6(C)COC6)CC5)cc43)cn2)C1 | 3.5 | 4.1 | – |
| CC1(N2CCN(c3cc4c(cnn4-c4cnn(-c5ncc(F)cn5)c4)cc3Cl)CC2)COC1 | 2.8 | 4.5 | bioavailability [5]: 47%; MRT [6]: 17 h; bioavailability [8]: 88% |
| C[C@@]1(N2CCN(c3cc4c(cnn4-c4cnn(C56CC(C5)C6)c4)cc3Cl)CC2)COC[C@@H]1O | – | – | Kp uu [3]: 0.4; MRT [9]: 5.8 h; MRT [6]: 12 h; AUC [10]: 101 µM·h; bioavailability [11]: 48% |
| CC1(N2CCC(c3cc4c(cnn4-c4cnn(C(F)F)c4)cc3Cl)CC2)COC1 | 3.7 | 3.5 | – |
| C[C@@]1(N2CCN(c3cc4c(cnn4-c4cnn(C5CC5)c4)cc3Cl)CC2)COC[C@@H]1O | – | 2.5 | – |
| Cn1cc(-n2ncc3cc(Cl)c(C4CCN(C5(C)COC5)CC4)cc32)cn1 | 2.8 | 3.4 | – |
| CC1(N2CCN(c3cc4c(cnn4-c4cnn(C5CC5)c4)cc3Cl)CC2)CCOC1 (stereo not given) | – | 3.2 | – |

Source: ChEMBL document CHEMBL5614427, “Discovery and Optimization of N-Heteroaryl Indazole LRRK2 Inhibitors” (J Med Chem, 2024)
